ChEMBL document CHEMBL1201862, “PubChem BioAssay data set” (2004)
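Five compound concentrations were applied to cells in 96-well plates for 48 hours; endpoints were derived by simple linear interpolation of the resulting dose-response curve. At the GI50, growth is halved.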 The source made the active and inactive calls. Rule as the data show it: active = GI50 up to about 1.1 µM and inactive = higher.

Key:
Assay in all cases: NCI anticancer screen, dose series, 48 h
EKVX = tested on: EKVX
SW-620 = tested on: SW-620
NCI-H226 = tested on: NCI-H226
Malme-3M = tested on: Malme-3M
OVCAR-5 = tested on: OVCAR-5
SK-MEL-2 = tested on: SK-MEL-2
SN12C = tested on: SN12C
HT-29 = tested on: HT-29
NCI-H460 = tested on: NCI-H460
HOP-62 = tested on: HOP-62
OVCAR-3 = tested on: OVCAR-3
TK-10 = tested on: TK-10
HCT-116 = tested on: HCT-116
SK-MEL-5 = tested on: SK-MEL-5
SF-295 = tested on: SF-295
RPMI-8226 = tested on: RPMI-8226
IGROV-1 = tested on: IGROV-1
SF-539 = tested on: SF-539
CAKI-1 = tested on: CAKI-1
NCI-H522 = tested on: NCI-H522

Measured: GI50

COc1cc2c(cc1OC)C(C1(O)CCCCC1)NCC2 (stereo not drawn)
inactive: EKVX > 100 µM | SW-620 > 100 µM | NCI-H226 > 100 µM | Malme-3M > 100 µM | OVCAR-5 > 100 µM | SK-MEL-2 > 100 µM | SN12C > 100 µM | HT-29 > 100 µM | NCI-H460 > 100 µM | HOP-62 > 100 µM | OVCAR-3 > 100 µM | TK-10 > 100 µM | HCT-116 > 100 µM | SK-MEL-5 > 100 µM | SF-295 > 100 µM | RPMI-8226 > 100 µM | IGROV-1 > 100 µM

CC(C)(C)OC(=O)NCC(=O)NC1c2ccsc2/C(=N/O)[C@H]1O (stereo partly drawn)
inactive: SF-539 > 100 µM | EKVX > 100 µM | CAKI-1 > 100 µM | SW-620 > 100 µM | NCI-H226 > 100 µM | Malme-3M > 100 µM | OVCAR-5 > 100 µM | SK-MEL-2 > 100 µM | SN12C > 100 µM | HT-29 > 100 µM | NCI-H460 > 100 µM | HOP-62 > 100 µM | OVCAR-3 > 100 µM | TK-10 > 100 µM | HCT-116 > 100 µM | SK-MEL-5 > 100 µM | SF-295 > 100 µM | IGROV-1 > 100 µM

N#CCCOCN(CO)c1nc(N(CO)COCCC#N)nc(N(CO)COCCC#N)n1
inactive: SF-539 2.5 µM | EKVX 31.2 µM | SW-620 16.1 µM | NCI-H226 22.7 µM | Malme-3M 24.9 µM | NCI-H522 22.3 µM | OVCAR-5 35.2 µM | SK-MEL-2 19 µM | SN12C 20.4 µM | HT-29 29.1 µM | NCI-H460 29.7 µM | HOP-62 > 100 µM | OVCAR-3 25.7 µM | TK-10 34 µM | HCT-116 25.7 µM | SF-295 21.7 µM | RPMI-8226 22.5 µM | IGROV-1 > 100 µM

C=C(c1ccccc1)c1cc2c(=O)[nH]ccc2n1C
inactive: EKVX 39.4 µM | CAKI-1 33.2 µM | SW-620 28.5 µM | Malme-3M 30.1 µM | NCI-H522 16.3 µM | OVCAR-5 44.2 µM | SK-MEL-2 21.5 µM | SN12C 34.2 µM | NCI-H460 30.1 µM | HOP-62 25 µM | OVCAR-3 24.8 µM | TK-10 55.3 µM | SK-MEL-5 26 µM | SF-295 29.9 µM | RPMI-8226 24.7 µM | IGROV-1 44.4 µM

COCCOCOc1ccc(OCc2ccccc2)cc1
inactive: SF-539 > 100 µM | EKVX > 55.7 µM | CAKI-1 2.25 µM | SW-620 > 100 µM | NCI-H226 > 100 µM | Malme-3M > 100 µM | OVCAR-5 > 100 µM | SK-MEL-2 > 82.6 µM | SN12C > 100 µM | HT-29 > 100 µM | NCI-H460 > 100 µM | HOP-62 > 100 µM | OVCAR-3 > 100 µM | HCT-116 > 100 µM | SK-MEL-5 35 µM | SF-295 > 100 µM | RPMI-8226 > 49.5 µM | IGROV-1 > 100 µM

O=C1c2ccccc2OCC12OC21C=CC(Cl)=CC1 (stereo not drawn)
inactive: SF-539 52.4 µM | EKVX 18.7 µM | SW-620 29.4 µM | NCI-H226 30.5 µM | Malme-3M 18.5 µM | OVCAR-5 31.8 µM | SK-MEL-2 21.7 µM | SN12C 15.7 µM | HT-29 19.1 µM | NCI-H460 20.3 µM | HOP-62 33.7 µM | OVCAR-3 20.5 µM | TK-10 33.2 µM | HCT-116 18.9 µM | SK-MEL-5 13.2 µM | RPMI-8226 14.8 µM | IGROV-1 42.9 µM

COc1cc(Cc2ccc3c(c2C#N)N(C)c2ccccc2S3)cc(OC)c1OC
inactive: SF-539 17.8 µM | EKVX 40.8 µM | SW-620 > 100 µM | NCI-H226 62.4 µM | Malme-3M 34.3 µM | NCI-H522 34.7 µM | OVCAR-5 > 100 µM | SK-MEL-2 > 100 µM | SN12C 22.3 µM | HT-29 53.7 µM | NCI-H460 52.2 µM | HOP-62 59.7 µM | OVCAR-3 18.7 µM | TK-10 > 100 µM | HCT-116 13.9 µM | SF-295 7.53 µM | RPMI-8226 8.39 µM | IGROV-1 > 100 µM

CSc1nc(N)c2c(-c3ccccc3)c3c(nc2n1)CCCC3
inactive: SF-539 13.4 µM | EKVX > 100 µM | CAKI-1 > 100 µM | SW-620 > 100 µM | Malme-3M 82 µM | OVCAR-5 > 100 µM | SN12C > 100 µM | HT-29 > 100 µM | NCI-H460 > 100 µM | HOP-62 98.4 µM | OVCAR-3 > 100 µM | TK-10 > 100 µM | HCT-116 > 100 µM | SK-MEL-5 > 100 µM | SF-295 > 100 µM | RPMI-8226 > 100 µM | IGROV-1 > 100 µM

CC(=C/c1ccccc1)/C=C1/NC(=S)N(/C=C2\C(=O)Oc3ccccc3C2=O)C1=O
inactive: SF-539 96.6 µM | EKVX 27.9 µM | NCI-H226 67.9 µM | NCI-H522 22.7 µM | OVCAR-5 > 100 µM | SK-MEL-2 > 100 µM | SN12C 98.6 µM | NCI-H460 30.5 µM | HOP-62 83.2 µM | OVCAR-3 38.3 µM | TK-10 40.7 µM | HCT-116 41.9 µM | SK-MEL-5 25.6 µM | SF-295 > 100 µM | RPMI-8226 26.6 µM

CN(C)c1nc(N(C)C)nc(N(C)CN(C)c2ccccc2)n1
inactive: SF-539 > 100 µM | NCI-H226 > 100 µM | Malme-3M > 100 µM | NCI-H522 > 100 µM | SK-MEL-2 > 100 µM | SN12C > 100 µM | HT-29 > 100 µM | NCI-H460 > 100 µM | OVCAR-3 > 100 µM | TK-10 > 100 µM | HCT-116 > 100 µM | SK-MEL-5 88.7 µM | SF-295 > 100 µM | IGROV-1 > 100 µM

O=C1OC(c2ccc(O)c(F)c2)(c2ccc(O)c(F)c2)c2cccc3cccc1c23
inactive: SF-539 > 25 µM | EKVX 5.12 µM | CAKI-1 2.79 µM | SW-620 > 25 µM | NCI-H226 > 25 µM | Malme-3M > 25 µM | OVCAR-5 > 25 µM | SK-MEL-2 > 25 µM | SN12C 1.34 µM | HT-29 > 25 µM | NCI-H460 > 25 µM | HOP-62 > 25 µM | OVCAR-3 5.9 µM | TK-10 > 25 µM | HCT-116 > 25 µM | SK-MEL-5 > 25 µM | SF-295 23.2 µM | RPMI-8226 17.2 µM | IGROV-1 > 25 µM

NC(=O)Oc1ccccc1 [CARBAMIC ACID PHENYL ESTER]
inactive: SW-620 > 100 µM | NCI-H226 > 100 µM | NCI-H522 > 100 µM | SN12C > 100 µM | HT-29 > 100 µM | NCI-H460 > 100 µM | OVCAR-3 > 100 µM | TK-10 > 100 µM | HCT-116 > 100 µM | SK-MEL-5 > 100 µM | SF-295 > 100 µM
